# Measurements published in ChEMBL document CHEMBL5346933, “Design and synthesis of novel arylurea derivatives of aryloxy(1-phenylpropyl) alicyclic diamines with antimicrobial activity against multidrug-resistant Gram-positive bacteria” (Eur J Med Chem, 2023).
# Calls of active or inactive are those of the source. No cut-off for these calls is given here.
# How the values were obtained:
# Pseudomonas aeruginosa = assay: Antibacterial activity against Pseudomonas aeruginosa ATCC 27853 assessed as inhibition of bacterial growth incubated for 18 hrs by broth microdilution method; format: functional
# [1] = tested on: Staphylococcus epidermidis; assay: Antibacterial activity against biofilm producer Staphylococcus epidermidis ATCC 35984 assessed as inhibition of bacterial growth incubated for 18 hrs by broth microdilution method; format: functional
# Klebsiella pneumoniae = assay: Antibacterial activity against Klebsiella pneumoniae ATCC 700603 assessed as inhibition of bacterial growth incubated for 18 hrs by broth microdilution method; format: functional
# Streptococcus pneumoniae = assay: Antibacterial activity against Streptococcus pneumoniae ATCC 49619 assessed as inhibition of bacterial growth incubated for 18 hrs by broth microdilution method; format: functional
# Staphylococcus aureus [2] = assay: Antibacterial activity against biofilm producer Staphylococcus aureus RN450 assessed as inhibition of bacterial growth incubated for 18 hrs by broth microdilution method; format: functional
# [3] = tested on: Staphylococcus epidermidis; assay: Antibacterial activity against linezolid-resistant Staphylococcus epidermidis NIL 4399/19 assessed as inhibition of bacterial growth incubated for 18 hrs by broth microdilution method; format: functional
# Escherichia coli = assay: Antibacterial activity against Escherichia coli ATCC 25922 assessed as inhibition of bacterial growth incubated for 18 hrs by broth microdilution method; format: functional
# Staphylococcus aureus [4] = assay: Antibacterial activity against methicillin-susceptible Staphylococcus aureus ATCC 25923 assessed as inhibition of bacterial growth incubated for 18 hrs by broth microdilution method; format: functional
# [5] = Cytotoxicity against human MRC5 cells assessed as reduction in cell viability incubated for 24 hrs by MTT assay; format: toxicity, cell-based
# Enterococcus faecium = assay: Antibacterial activity against vancomycin-resistant Enterococcus faecium assessed as inhibition of bacterial growth incubated for 18 hrs by broth microdilution method; format: functional
# Staphylococcus aureus [6] = assay: Antibacterial activity against vancomycin-intermediate Staphylococcus aureus ATCC 700699 assessed as inhibition of bacterial growth incubated for 18 hrs by broth microdilution method; format: functional
# [7] = Induction of hemolysis in horse RBC at 200 uM incubated for 1 hr; format: toxicity, cell-based, Equus caballus, Erythrocyte; conditions: horse red blood cells (erythrocytes), read-out: Activity
# Enterococcus faecalis = assay: Antibacterial activity against Enterococcus faecalis ATCC 29212 assessed as inhibition of bacterial growth incubated for 18 hrs by broth microdilution method; format: functional
# [8] = Cytotoxicity against human BJ cells assessed as reduction in cell viability incubated for 24 hrs by MTT assay; format: toxicity, cell-based
# Staphylococcus aureus [9] = assay: Antibacterial activity against methicillin-resistant Staphylococcus aureus clinical strain 19449 assessed as inhibition of bacterial growth incubated for 18 hrs by broth microdilution method; format: functional
# [10] = tested on: Staphylococcus epidermidis; assay: Antibacterial activity against methicillin-susceptible Staphylococcus epidermidis ATCC 12228 assessed as inhibition of bacterial growth incubated for 18 hrs by broth microdilution method; format: functional
Compound,Activity (Pseudomonas aeruginosa),MIC [1],Activity (Klebsiella pneumoniae),MIC (Streptococcus pneumoniae),MIC (Staphylococcus aureus [2]),MIC [3],Activity (Escherichia coli),MIC (Staphylococcus aureus [4]),IC50 at 24 h [5],MIC (Enterococcus faecium),MIC (Staphylococcus aureus [6]),"hemolysis at 1 h, 200 µM [7]",MIC (Enterococcus faecalis),IC50 at 24 h [8],MIC (Staphylococcus aureus [9]),MIC [10]
O=C(Nc1cccc(Cl)c1)N[C@H]1CCN(CCC(Oc2cccc(Cl)c2)c2ccccc2)C1 (stereo partly specified),inactive,3.12 mg/L,inactive,6.25 mg/L,3.12 mg/L,3.12 mg/L,inactive,3.12 mg/L,3.12 mg/L,0.78 mg/L,3.12 mg/L,8%,3.12 mg/L,6.25 mg/L,3.12 mg/L,3.12 mg/L
COc1cccc(OC(CCN2CCC(NC(=O)Nc3cccc(Cl)c3)CC2)c2ccccc2)c1 (racemic),inactive,6.25 mg/L,inactive,12.5 mg/L,3.12 mg/L,6.25 mg/L,inactive,12.5 mg/L,–,–,12.5 mg/L,–,–,–,12.5 mg/L,6.25 mg/L
O=C(Nc1cccc(Cl)c1)NC1CCN(CCC(Oc2ccccc2C(F)(F)F)c2ccccc2)CC1 (racemic),inactive,> 12.5 mg/L,inactive,12.5 mg/L,3.12 mg/L,3.12 mg/L,inactive,3.12 mg/L,–,–,3.12 mg/L,–,–,–,3.12 mg/L,12.5 mg/L
O=C(Nc1cccc(Cl)c1)NC1CCN(CCC(Oc2ccc(Cl)cc2)c2ccccc2)CC1 (racemic),inactive,1.56 mg/L,inactive,6.25 mg/L,1.56 mg/L,3.12 mg/L,inactive,3.12 mg/L,6.25 mg/L,1.56 mg/L,3.12 mg/L,< 1%,3.12 mg/L,12.5 mg/L,3.12 mg/L,3.12 mg/L
O=C(O)c1cn(C2CC2)c2cc(N3CCNCC3)c(F)cc2c1=O [CIPROFLOXACIN],–,0.78 mg/L,–,–,0.78 mg/L,> 12.5 mg/L,–,0.78 mg/L,–,0.78 mg/L,–,–,0.78 mg/L,–,–,0.78 mg/L
O=C(Nc1cccc(Cl)c1)N1CCN(CCC(Oc2ccc(C(F)(F)F)cc2)c2ccccc2)CC1 (racemic),inactive,> 12.5 mg/L,inactive,> 12.5 mg/L,> 12.5 mg/L,> 12.5 mg/L,inactive,> 12.5 mg/L,–,–,> 12.5 mg/L,–,–,–,> 12.5 mg/L,> 12.5 mg/L
COc1ccccc1OC(CCN1CCC(NC(=O)Nc2cccc(Cl)c2)CC1)c1ccccc1 (stereo unspecified),inactive,12.5 mg/L,inactive,> 12.5 mg/L,> 12.5 mg/L,> 12.5 mg/L,inactive,> 12.5 mg/L,–,–,> 12.5 mg/L,–,–,–,> 12.5 mg/L,> 12.5 mg/L
O=C(Nc1cccc(Cl)c1)NC1CCN(CCC(Oc2ccc(C(F)(F)F)cc2)c2ccccc2)CC1 (stereo unspecified),inactive,3.12 mg/L,inactive,> 12.5 mg/L,3.12 mg/L,3.12 mg/L,inactive,0.78 mg/L,–,1.56 mg/L,6.25 mg/L,–,6.25 mg/L,–,6.25 mg/L,0.78 mg/L
COc1cccc2c1C(=O)c1c(O)c3c(c(O)c1C2=O)C[C@@](O)(C(=O)CO)C[C@@H]3O[C@H]1C[C@H](N)[C@H](O)[C@H](C)O1 [DOXORUBICIN],–,–,–,–,–,–,–,–,0.39 mg/L,–,–,–,–,0.78 mg/L,–,–
O=C(Nc1cccc(Cl)c1)NC1CCN(CCC(Oc2ccccc2Cl)c2ccccc2)CC1 (racemic),inactive,3.12 mg/L,inactive,12.5 mg/L,1.56 mg/L,3.12 mg/L,inactive,6.25 mg/L,–,6.25 mg/L,6.25 mg/L,–,6.25 mg/L,–,6.25 mg/L,6.25 mg/L
